According to US20250171438A1 (Agios Pharmaceuticals, Inc., priority 2022, published 2025):

The molecules below were run against T1, human PAH with the R408W mutation (Homo sapiens, UniProt P00439, R408W) (assay: Cell Based Phenylalanine Flux Assay). Details: A375 cells expressing human R408W PAH; 24 hrs compound incubation; 13C-Tyrosine by LC-MS; average where tested multiple times; read-out: AC50.
T1 construct: expressed in transfected cells
T1 sequence (P00439 1-452 R408W): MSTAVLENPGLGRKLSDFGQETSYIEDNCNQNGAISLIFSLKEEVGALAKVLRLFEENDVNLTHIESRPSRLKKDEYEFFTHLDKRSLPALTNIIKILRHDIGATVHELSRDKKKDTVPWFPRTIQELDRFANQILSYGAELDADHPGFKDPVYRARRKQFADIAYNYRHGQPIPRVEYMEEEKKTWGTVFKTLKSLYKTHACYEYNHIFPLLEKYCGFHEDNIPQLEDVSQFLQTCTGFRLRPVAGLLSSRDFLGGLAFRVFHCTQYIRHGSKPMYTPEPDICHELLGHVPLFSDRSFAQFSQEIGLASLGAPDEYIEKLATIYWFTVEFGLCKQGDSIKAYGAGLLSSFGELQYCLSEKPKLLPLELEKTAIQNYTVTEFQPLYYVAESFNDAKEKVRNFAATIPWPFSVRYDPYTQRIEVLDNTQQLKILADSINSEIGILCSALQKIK

Row | AC50 [µM] | SMILES
1 | < 0.5 | Brc1ccc2nc([C@@H]3c4nc[nH]c4CCN3Cc3nccs3)[nH]c2c1 [Example 971, (S)-2-((4-(6-bromo-1H-benzo[d]imidazol-2-yl)-6,7-dihydro-1H-imidazo[4,5-c]pyridin-5(4H)-yl)methyl)thiazole]
2 | < 0.5 | Fc1ccc2nc([C@@H]3c4nc[nH]c4CCN3Cc3nccs3)[nH]c2c1 [Example 974, (S)-2-((4-(6-fluoro-1H-benzo[d]imidazol-2-yl)-6,7-dihydro-1H-imidazo[4,5-c]pyridin-5(4H)-yl)methyl)thiazole]
3 | 0.5 to 1 | O=C(c1ncc(Cl)s1)N1CCc2[nH]cnc2[C@H]1c1nc2ccc(Br)cc2[nH]1 [Example 975, (S)-(4-(6-bromo-1H-benzo[d]imidazol-2-yl)-6,7-dihydro-1H-imidazo[4,5-c]pyridin-5(4H)-yl)(5-chlorothiazol-2-yl)methanone]
4 | > 5 | O=C(c1ncc(Cl)s1)N1CCc2[nH]cnc2[C@@H]1c1nc2ccc(Br)cc2[nH]1 [Example 976, (R)-(4-(6-bromo-1H-benzo[d]imidazol-2-yl)-6,7-dihydro-1H-imidazo[4,5-c]pyridin-5(4H)-yl)(5-chlorothiazol-2-yl)methanone]
5 | 0.5 to 1 | O=C(c1nncs1)N1CCc2[nH]cnc2[C@H]1c1nc2ccc(Br)cc2[nH]1 [Example 977, (S)-(4-(6-bromo-1H-benzo[d]imidazol-2-yl)-6,7-dihydro-1H-imidazo[4,5-c]pyridin-5(4H)-yl)(1,3,4-thiadiazol-2-yl)methanone]
6 | > 5 | O=C(c1nncs1)N1CCc2[nH]cnc2[C@@H]1c1nc2ccc(Br)cc2[nH]1 [Example 978, (R)-(4-(6-bromo-1H-benzo[d]imidazol-2-yl)-6,7-dihydro-1H-imidazo[4,5-c]pyridin-5(4H)-yl)(1,3,4-thiadiazol-2-yl)methanone]
7 | > 5 | Clc1cnc(CN2CCc3[nH]cnc3[C@@H]2c2nc3ccccc3[nH]2)s1 [Example 979, (R)-2-((4-(1H-benzo[d]imidazol-2-yl)-6,7-dihydro-1H-imidazo[4,5-c]pyridin-5(4H)-yl)methyl)-5-chlorothiazole]
8 | 0.5 to 1 | Clc1cnc(CN2CCc3[nH]cnc3[C@H]2c2nc3ccccc3[nH]2)s1 [Example 980, (S)-2-((4-(1H-benzo[d]imidazol-2-yl)-6,7-dihydro-1H-imidazo[4,5-c]pyridin-5(4H)-yl)methyl)-5-chlorothiazole]
9 | < 0.5 | O=C(c1ccon1)N1CCc2[nH]cnc2[C@H]1c1nc2ccc(Br)cc2[nH]1 [Example 981, (S)-(4-(6-bromo-1H-benzo[d]imidazol-2-yl)-6,7-dihydro-1H-imidazo[4,5-c]pyridin-5(4H)-yl)(isoxazol-3-yl)methanone]
10 | 1 to 5 | O=C(c1ccon1)N1CCc2[nH]cnc2[C@@H]1c1nc2ccc(Br)cc2[nH]1 [Example 982, (R)-(4-(6-bromo-1H-benzo[d]imidazol-2-yl)-6,7-dihydro-1H-imidazo[4,5-c]pyridin-5(4H)-yl)(isoxazol-3-yl)methanone]
11 | > 5 | O=C(c1nccs1)N1CCc2[nH]cnc2[C@@H]1c1nc2cccc(Cl)c2[nH]1 [Example 983, (R)-(4-(7-chloro-1H-benzo[d]imidazol-2-yl)-6,7-dihydro-1H-imidazo[4,5-c]pyridin-5(4H)-yl)(thiazol-2-yl)methanone]
12 | 0.5 to 1 | O=C(c1nccs1)N1CCc2[nH]cnc2[C@H]1c1nc2cccc(Cl)c2[nH]1 [Example 984, (S)-(4-(7-chloro-1H-benzo[d]imidazol-2-yl)-6,7-dihydro-1H-imidazo[4,5-c]pyridin-5(4H)-yl)(thiazol-2-yl)methanone]
13 | > 5 | O=C(c1cnn2ccccc12)N1CCc2[nH]cnc2[C@@H]1c1nc2cccc(Cl)c2[nH]1 [Example 985, (R)-(4-(7-chloro-1H-benzo[d]imidazol-2-yl)-6,7-dihydro-1H-imidazo[4,5-c]pyridin-5(4H)-yl)(pyrazolo[1,5-a]pyridin-3-yl)methanone]
14 | 0.5 to 1 | O=C(c1cnn2ccccc12)N1CCc2[nH]cnc2[C@H]1c1nc2cccc(Cl)c2[nH]1 [Example 986, (S)-(4-(7-chloro-1H-benzo[d]imidazol-2-yl)-6,7-dihydro-1H-imidazo[4,5-c]pyridin-5(4H)-yl)(pyrazolo[1,5-a]pyridin-3-yl)methanone]
15 | > 5 | c1ccc2[nH]c([C@H]3c4nc[nH]c4CCN3c3nc4ccccc4o3)nc2c1 [Example 987, (R)-2-(4-(1H-benzo[d]imidazol-2-yl)-6,7-dihydro-1H-imidazo[4,5-c]pyridin-5(4H)-yl)benzo[d]oxazole]
16 | < 0.5 | c1ccc2[nH]c([C@@H]3c4nc[nH]c4CCN3c3nc4ccccc4o3)nc2c1 [Example 988, (S)-2-(4-(1H-benzo[d]imidazol-2-yl)-6,7-dihydro-1H-imidazo[4,5-c]pyridin-5(4H)-yl)benzo[d]oxazole]
17 | 0.5 to 1 | O=C(c1cnc(-c2ccccn2)s1)N1CCc2[nH]cnc2[C@H]1c1nc2ccccc2[nH]1 [Example 989, (S)-(4-(1H-benzo[d]imidazol-2-yl)-6,7-dihydro-1H-imidazo[4,5-c]pyridin-5(4H)-yl)(2-(pyridin-2-yl)thiazol-5-yl)methanone]
18 | 0.5 to 1 | O=C(c1cnn2ccccc12)N1CCc2[nH]cnc2[C@H]1c1nc2cccc(F)c2[nH]1 [Example 990, (S)-(4-(7-fluoro-1H-benzo[d]imidazol-2-yl)-6,7-dihydro-1H-imidazo[4,5-c]pyridin-5(4H)-yl)(pyrazolo[1,5-a]pyridin-3-yl)methanone]
19 | > 5 | O=C(c1cnn2ccccc12)N1CCc2[nH]cnc2[C@@H]1c1nc2cccc(F)c2[nH]1 [Example 991, (R)-(4-(7-fluoro-1H-benzo[d]imidazol-2-yl)-6,7-dihydro-1H-imidazo[4,5-c]pyridin-5(4H)-yl)(pyrazolo[1,5-a]pyridin-3-yl)methanone]
20 | > 5 | Cc1ncoc1C(=O)N1CCc2[nH]cnc2[C@@H]1c1nc2ccccc2[nH]1 [Example 992, (R)-(4-(1H-benzo[d]imidazol-2-yl)-6,7-dihydro-1H-imidazo[4,5-c]pyridin-5(4H)-yl)(4-methyloxazol-5-yl)methanone]
21 | < 0.5 | Cc1ncoc1C(=O)N1CCc2[nH]cnc2[C@H]1c1nc2ccccc2[nH]1 [Example 993, (S)-(4-(1H-benzo[d]imidazol-2-yl)-6,7-dihydro-1H-imidazo[4,5-c]pyridin-5(4H)-yl)(4-methyloxazol-5-yl)methanone]
22 | < 0.5 | O=C(c1ocnc1C(F)(F)F)N1CCc2[nH]cnc2[C@H]1c1nc2ccccc2[nH]1 [Example 994, (S)-(4-(1H-benzo[d]imidazol-2-yl)-6,7-dihydro-1H-imidazo[4,5-c]pyridin-5(4H)-yl)(4-(trifluoromethyl)oxazol-5-yl)methanone]
23 | 0.5 to 1 | O=C(c1oc(-c2ccccn2)nc1C1CC1)N1CCc2[nH]cnc2[C@H]1c1nc2ccccc2[nH]1 [Example 995, (S)-(4-(1H-benzo[d]imidazol-2-yl)-6,7-dihydro-1H-imidazo[4,5-c]pyridin-5(4H)-yl)(4-cyclopropyl-2-(pyridin-2-yl)oxazol-5-yl)methanone]
24 | 1 to 5 | O=C(CCc1ncc(Cl)s1)N1CCc2[nH]cnc2[C@H]1c1nc2ccccc2[nH]1 [Example 996, (S)-1-(4-(1H-benzo[d]imidazol-2-yl)-1,4,6,7-tetrahydro-5H-imidazo[4,5-c]pyridin-5-yl)-3-(5-chlorothiazol-2-yl)propan-1-one]
